# Measurements reported in US9695178B2, “6-(2-pyridyl)-7,8-dihydro-5H-pyrido[4,3-D]pyrimidine analogs as hedgehog pathway signaling inhibitors and therapeutic applications thereof” (Suzhou Yunxuan Yiyao Keji Youxian Gongsi, priority 2013, dated 2017).
# Like-named read-outs stand apart in the source and are kept apart here.
# Molecular target: Smo (Homo sapiens, UniProt Q99835)
# Test: Bodipy-Cyclopamine Binding Assay (confirmation assay), Hek293-SMO cells
# [1] = Smo IC50 (nM), confirmation assay, competition with 100 nM bodipy-cyclopamine, Hek293-SMO cells
# Sequence of Smo (Q99835 28-787): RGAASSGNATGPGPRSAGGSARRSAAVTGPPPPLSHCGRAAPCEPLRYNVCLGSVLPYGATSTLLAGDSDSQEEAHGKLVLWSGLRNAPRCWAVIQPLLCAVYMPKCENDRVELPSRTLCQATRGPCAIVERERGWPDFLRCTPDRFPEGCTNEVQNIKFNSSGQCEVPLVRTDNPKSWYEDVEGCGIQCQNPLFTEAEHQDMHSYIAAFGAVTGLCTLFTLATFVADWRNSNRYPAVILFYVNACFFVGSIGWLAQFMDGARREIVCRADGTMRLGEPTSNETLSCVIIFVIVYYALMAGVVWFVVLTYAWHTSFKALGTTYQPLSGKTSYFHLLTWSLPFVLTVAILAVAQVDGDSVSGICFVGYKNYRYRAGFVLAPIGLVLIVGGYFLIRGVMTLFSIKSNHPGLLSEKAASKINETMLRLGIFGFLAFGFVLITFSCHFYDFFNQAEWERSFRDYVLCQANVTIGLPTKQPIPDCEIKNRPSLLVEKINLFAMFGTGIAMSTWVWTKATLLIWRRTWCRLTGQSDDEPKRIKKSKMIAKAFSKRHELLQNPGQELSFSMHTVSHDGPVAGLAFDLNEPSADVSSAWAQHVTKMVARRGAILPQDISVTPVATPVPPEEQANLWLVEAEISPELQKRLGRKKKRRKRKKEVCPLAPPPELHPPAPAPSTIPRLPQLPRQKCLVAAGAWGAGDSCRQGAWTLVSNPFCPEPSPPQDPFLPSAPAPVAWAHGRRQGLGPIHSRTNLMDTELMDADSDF
Structure (SMILES),IC50 [nM],further results
"Cc1cnc(-c2cc(N3CCc4nc(N5CCCC5)ncc4C3)ncc2Cl)c(C)c1 [Compound A-53, 6-(5′-chloro-3,5-dimethyl-2,4′-bipyridin-2′-yl)-2-(pyrrolidin-1-yl)-5,6,7,8-tetrahydro-pyrido-[4,3-d]pyrimidine]",24.9,
"Clc1cnc(N2CCc3nc(NC4CC4)ncc3C2)cc1-c1ncccn1 [Compound A-115, 6-(5-chloro-4-(pyrimidin-2-yl)pyridin-2-yl)-N-cyclopropyl-5,6,7,8-tetrahydropyrido[4,3-d]pyrimidin-2-amine]",> 1000,
"Cc1cnc(-c2cc(N3CCc4nc(Nc5ccccc5)ncc4C3)ncc2Cl)c(C)c1 [Compound A-62, 6-(5′-chloro-3,5-dimethyl-2,4′-bipyridin-2′-yl)-N-phenyl-5,6,7,8-tetrahydro-pyrido-[4,3-d]pyrimidin-2-amine]",51.1,
"CCNC(=O)c1cn2c(n1)CN(c1cc(-c3ncc(C)cc3C)c(Cl)cn1)CC2 [Compound A-9, 7-(5′-chloro-3,5-dimethyl-2,4′-bipyridin-2′-yl)-N-ethyl-5,6,7,8-tetrahydro-imidazo-[1,2-a]pyrazine-2-carboxamide]",,IC50 [1]: > 1000 nM
"CSc1ncc2c(n1)C(C)(C)CN(c1cc(-c3ncc(C)cc3C)c(Cl)cn1)C2 [Compound A-79, 6-(5′-chloro-3,5-dimethyl-2,4′-bipyridin-2′-yl)-8,8-dimethyl-2-(methylthio)-5,6,7,8-tetrahydro-pyrido-[4,3-d]pyrim-idine]",188,
"Cc1cnc(-c2cc(N3CCc4nc(NC(=O)CCN(C)C)sc4C3)ncc2Cl)c(C)c1 [Compound A-41, N-(5-(5′-chloro-3,5-dimethyl-2,4′-bipyridin-2′-yl)-4,5,6,7-tetrahydro-thiazolo-[5,4-c]pyridin-2-yl)-3-(dimethyl-amino)-propanamide]",173,
"CC1=C2CC3C(CC=C4C[C@@H](O)CCC43C)C2CCC12O[C@@H]1CC(C)CN(CCNC(=O)CCCCCNC(=O)CCC3=[N+]4C(=Cc5c(C)cc(C)n5[B-]4(F)F)C=C3)C1C2C (stereo partly drawn) [bodipy-cyclopamine, reference compound]",,"Kd (read-out: Kd of bodipy-cyclopamine for WT-Smo, used in the Cheng-Prusoff equation): 3.5 ± 0.8 nM"
"CCNC(=O)Nc1nc2c(s1)CN(c1cc(-c3ncc(C)cc3C)c(Cl)cn1)CC2 [Compound A-42, 1-(5-(5′-chloro-3,5-dimethyl-2,4′-bipyridin-2′-yl)-4,5,6,7-tetrahydro-thiazolo-[5,4-c]pyridin-2-yl)-3-ethylurea]",190,
"CCOC(=O)c1cn2c(n1)CN(c1cc(-c3ncc(C)cc3C)c(Cl)cn1)CC2 [Compound A-1, ethyl 7-(5′-chloro-3,5-dimethyl-2,4′-bipyridin-2′-yl)-5,6,7,8-tetrahydro-imidazo-[1,2-a]pyrazine-2-carboxylate]",321,
"Cc1cnc(-c2cc(N3CCc4nc(N5CC(C)OC(C)C5)sc4C3)ncc2Cl)c(C)c1 (stereo not drawn) [Compound A-33, 4-(5-(5′-chloro-3,5-dimethyl-2,4′-bipyridin-2′-yl)-4,5,6,7-tetrahydro-thiazolo-[5,4-c]pyridin-2-yl)-2,6-dimethyl-morpholine]",447,
"Cc1cnc(-c2cc(N3CCn4cc(C(=O)OC(C)C)nc4C3)ncc2Cl)c(C)c1 [Compound A-15, isopropyl 7-(5′-chloro-3,5-dimethyl-2,4′-bipyridin-2′-yl)-5,6,7,8-tetrahydro-imidazo-[1,2-a]pyrazine-2-carboxylate]",589,
"Cc1cnc(-c2cc(N3CCn4cc(CN5CCOCC5)nc4C3)ncc2Cl)c(C)c1 [Compound A-11, 4-((7-(5′-chloro-3,5-dimethyl-2,4′-bipyridin-2′-yl)-5,6,7,8-tetrahydroimidazo[1,2-a]pyrazin-2-yl)methyl)morpholine]",676,
"Cc1cnc(-c2cc(N3CCc4nc(NC5CCCC5)ncc4C3)ncc2Cl)c(C)c1 [Compound A-70, 6-(5′-chloro-3,5-dimethyl-2,4′-bipyridin-2′-yl)-N-cyclopentyl-5,6,7,8-tetrahydro-pyrido-[4,3-d]pyrim-idin-2-amine]",117,
"Cc1cnc(-c2cc(N3CCc4nc(N)ncc4C3)ncc2Cl)c(C)c1 [Compound A-89, 6-(5′-chloro-3,5-dimethyl-2,4′-bipyridin-2′-yl)-5,6,7,8-tetrahydropyrido-[4,3-d]pyrimidin-2-amine]",> 1000,
"Cc1cnc(-c2cc(N3CCc4nc(NC(=O)C(C)C)sc4C3)ncc2Cl)c(C)c1 [Compound A-24, N-(5-(5′-chloro-3,5-dimethyl-2,4′-bipyridin-2′-yl)-4,5,6,7-tetrahydro-thiazolo-[5,4-c]pyridin-2-yl)isobutyr-amide]",58.3,
"Cc1cnc(-c2cc(N3Cc4cnc(NC5CC5)nc4C(C)C3)ncc2Cl)c(C)c1 (stereo not drawn) [Compound A-75, 6-(5′-chloro-3,5-dimethyl-2,4′-bipyridin-2′-yl)-N-cyclopropyl-8-methyl-5,6,7,8-tetrahydro-pyrido-[4,3-d]pyrimidin-2-amine]",257,
"C=CC(=O)Nc1nc2c(s1)CN(c1cc(-c3ncc(C)cc3C)c(Cl)cn1)CC2 [Compound A-44, N-(5-(5′-chloro-3,5-dimethyl-2,4′-bipyridin-2′-yl)-4,5,6,7-tetrahydro-thiazolo-[5,4-c]pyridin-2-yl)acrylamide]",> 1000,

Structure (SMILES),IC50 [nM],further results
"Cc1cnc(-c2cc(N3CCc4nc(-n5cccn5)ncc4C3)ncc2Cl)c(C)c1 [Compound A-59, 6-(5′-chloro-3,5-dimethyl-2,4′-bipyridin-2′-yl)-2-(1H-pyrazol-1-yl)-5,6,7,8-tetrahydro-pyrido-[4,3-d]pyrim-idine]",48.8,
"Cc1cnc(-c2cc(N3CCc4nc(S(C)(=O)=O)ncc4C3=O)ncc2Cl)c(C)c1 [Compound A-98, 6-(5′-chloro-3,5-dimethyl-2,4′-bipyridin-2′-yl)-2-(methyl-sulfonyl)-7,8-dihydro-pyrido[4,3-d]pyrimidin-5(6H)-one]",835,
"Cc1cnc(-c2cc(N3Cc4cnc(N5CC(C)NC(C)C5)nc4C(C)(C)C3)ncc2Cl)c(C)c1 (stereo not drawn) [Compound A-82, 6-(5′-chloro-3,5-dimethyl-2,4′-bipyridin-2′-yl)-2-(3,5-dimethyl-piperazin-1-yl)-8,8-dimethyl-5,6,7,8-tetrahydro-pyrido-[4,3-d]pyrimidine]",105,
"Cc1cnc(-c2cc(N3CCn4cc(C(=O)N5CCOCC5)nc4C3)ncc2Cl)c(C)c1 [Compound A-5, (7-(5′-chloro-3,5-dimethyl-2,4′-bipyridin-2′-yl)-5,6,7,8-tetrahydro-imidazo-[1,2-a]pyrazin-2-yl)(morpholino) methanone]",1150,
"CCOC(=O)Nc1nc2c(s1)CN(c1cc(-c3ncc(C)cc3C)c(Cl)cn1)CC2 [Compound A-37, ethyl 5-(5′-chloro-3,5-dimethyl-2,4′-bipyridin-2′-yl)-4,5,6,7-tetrahydro-thiazolo-[5,4-c]pyridin-2-ylcarbamate]",487,
"Cc1cnc(-c2cc(N3CCc4nc(-n5cccn5)sc4C3)ncc2Cl)c(C)c1 [Compound A-36, 5-(5′-chloro-3,5-dimethyl-2,4′-bipyridin-2′-yl)-2-(1H-pyrazol-1-yl)-4,5,6,7-tetrahydro-thiazolo-[5,4-c]pyridine]",565,
"Cc1cnc(-c2cc(N3Cc4cnc(NC5CC5)nc4C(C)(C)C3)ncc2Cl)c(C)c1 [Compound A-80, 6-(5′-chloro-3,5-dimethyl-2,4′-bipyridin-2′-yl)-N-cyclopropyl-8,8-dimethyl-5,6,7,8-tetrahydro-pyrido-[4,3-d]pyrimidin-2-amine]",28.1,
"Cc1cnc(-c2cc(N3CCn4cc(C(=O)N5CC(C)NC(C)C5)nc4C3)ncc2Cl)c(C)c1 (stereo not drawn) [Compound A-7, (7-(5′-chloro-3,5-dimethyl-2,4′-bipyridin-2′-yl)-5,6,7,8-tetrahydro-imidazo-[1,2-a]pyrazin-2-yl)(3,5-dimethyl-piperazin-1-yl)methanone]",656,
"Cc1cnc(-c2cc(N3CCc4nc(NC5CC5)ncc4C3=O)ncc2Cl)c(C)c1 [Compound A99, 6-(5′-chloro-3,5-dimethyl-2,4′-bipyridin-2′-yl)-2-(cyclopropyl-amino)-7,8-dihydro-pyrido[4,3-d]pyrimidin-5(6H)-one]",24.8,
"Cc1cnc(-c2cc(N3CCc4nc(N5CCCC5)sc4C3)ncc2Cl)c(C)c1 [Compound A-34, 5-(5′-chloro-3,5-dimethyl-2,4′-bipyridin-2′-yl)-2-(pyrrolidin-1-yl)-4,5,6,7-tetrahydro-thiazolo-[5,4-c]pyridine]",371,
"Cc1cnc(-c2cc(N3CCn4cc(CO)nc4C3)ncc2Cl)c(C)c1 [Compound A-10, (7-(5′-chloro-3,5-dimethyl-2,4′-bipyridin-2′-yl)-5,6,7,8-tetrahydro-imidazo-[1,2-a]pyrazin-2-yl)methanol]",,IC50 [1]: > 1000 nM
"Cc1cnc(-c2cc(N3CCc4nc(NC(=O)C5CC5)sc4C3)ncc2Cl)c(C)c1 [Compound A-26, N-(5-(5′-chloro-3,5-dimethyl-2,4′-bipyridin-2′-yl)-4,5,6,7-tetrahydro-thiazolo-[5,4-c]pyridin-2-yl)cyclo-propane carboxamide]",71,
"Clc1cnc(N2CCc3nc(NC4CC4)ncc3C2)cc1-c1nccs1 [Compound A-117, 6-(5-chloro-4-(thiazol-2-yl)pyridin-2-yl)-N-cyclopropyl-5,6,7,8-tetrahydropyrido[4,3-d]pyrimidin-2-amine]",169,
"Cc1cnc(-c2cc(N3CC(C)(C)c4nc(N5CCC(O)CC5)ncc4C3=O)ncc2Cl)c(C)c1 [Compound A-83, 6-(5′-chloro-3,5-dimethyl-2,4′-bipyridin-2′-yl)-2-(4-hydroxy-piperidin-1-yl)-8,8-dimethyl-7,8-dihydro-pyrido[4,3-d] pyrimidin-5(6H)-one]",211,
"COCC(=O)Nc1cn2c(n1)CN(c1cc(-c3ncc(C)cc3C)c(Cl)cn1)CC2 [Compound A-14, N-(7-(5′-chloro-3,5-dimethyl-2,4′-bipyridin-2′-yl)-5,6,7,8-tetrahydro-imidazo-[1,2-a]pyrazin-2-yl)-2-methoxy-acetamide]",> 1000,
"Cc1cccnc1-c1cc(N2CCc3nc(NC4CC4)ncc3C2)ncc1Cl [Compound A-111, 6-(5′-chloro-3-methyl-2,4′-bipyridin-2′-yl)-N-cyclopropyl-5,6,7,8-tetrahydropyrido[4,3-d]pyrimidin-2-amine]",82.9,
